Laboratory results from publication PMC5786472 (Cell, 2018).
Where no end group is shown, it is not given here.

Legend:
[1] = system: E. coli K-12 strain W3110; type: cell-based, Escherichia coli
[2] = system: E. coli conferring New-Delhi metallo-beta-lactamase (NDM) resistance; settings: 10mM Tris (pH7.4) + 25mM NaCl, 20 hours, 37°C, at least 99.9% killing of inoculum; representative of three independent experiments
[3] = system: E. coli W3110, Acinetobacter baumannii (Ab 5075), Pseudomonas aeruginosa (PA14), NDM E. coli; settings: 20 h
E. coli = test: SLAY screen of a defined library of five surface-displayed peptides; type: cell-based, Escherichia coli

Compound | effect of surface-displayed peptide on growth [1] | MBC NDM E. coli [2] [µM] | also measured
CC(C)C[C@H](NC(=O)[C@H](CCCNC(=N)N)NC(=O)CNC(=O)CNC(=O)[C@@H](N)CCCNC(=N)N)C(=O)N[C@H]1CSSC[C@@H](C(=O)N[C@H](C(=O)NCC(=O)N[C@@H](CCCNC(=N)N)C(N)=O)C(C)C)NC(=O)[C@H](C(C)C)NC(=O)[C@@H]2CSSC[C@H](NC(=O)[C@H](Cc3ccc(O)cc3)NC1=O)C(=O)N[C@@H](CCCNC(=N)N)C(=O)N[C@@H](CCCNC(=N)N)C(=O)N[C@@H](CCCNC(=N)N)C(=O)N[C@@H](Cc1ccccc1)C(=O)N2 [Protegrin 1] | strong antimicrobial activity |  | 
DATPHAALFFTVKDHTAGDN [Peptide P15] |  | 64 | 
LPLPSCSSHGGDADNTSQRN [Peptide P11] |  | 32 | 
RLVRILVSKRPVAIKPYFRL [Peptide P1] |  |  | MBC over all bacteria tested [3]: less than 2 μM
YPYDVPDYAAYPYDVPDYAA [Peptide 2xHA] | grew similarly at all IPTG concentrations |  | log2 fold (E. coli): −0.01
dermaseptin | strong antimicrobial activity |  | 
